Source: US10559456B2, “Systems and methods for analyzing an extracted sample using an immiscible extraction solvent” (priority 2014, dated 2020)
Several values for one entry are separate records, joined by “and”; a condition that tells them apart may be missing. Identical values can stand only once.

How the values were obtained:
[1] = Log P=log([solute]octanol/[solute]water), un-ionized compound; cited from earlier work
[2] = system: cholinesterase (ChE); conditions: human whole blood diluted 10 times, acetylthiocholine 1.8 mg/mL, 5 min incubation in capillary, room temperature
Procedure: For testing of a particular solvent, 5 μL blood sample (diluted) was injected into the capillary with the extraction solvent plug immediately after the mixing the acetylthiocholine into the blood. After the 5 min incubation in capillary, the TCh/ATch ratio was measured using SFME nanoESI MS. For the control, 5 min after the mixing acetylthiocholine into the diluted blood, the sample was taken and analyzed immediately using SFME nanoESI MS with ethyl acetate as the extraction phase. Spray voltage of 1.5 kV was used for nanoESI.
SFME-nanoESI was applied for monitoring the enzymatic activity of cholinesterase (ChE) in whole blood samples. […] The blood sample was diluted 10 times to slow down the reaction rate as well as to facilitate the slug flows for SFME. The substrate acetylthiocholine iodine was added into the diluted blood sample at a concentration of 1.8 mg/mL, and then 5 μL sample was taken immediately and injected into the capillary with 5 μL extraction phase. The capillary with the sample and the extraction solvent was left in room temperature 25° C. for incubation. The SFME-nanoESI could be performed repeatedly on the same sample and the ratio of the substrate ATCh and the reaction product TCh could be monitored as a function of time to characterize the enzymatic activity of the ChE. […]

For `CN1[C@H]2CC[C@@H]1[C@@H](C(=O)O)[C@@H](OC(=O)c1ccccc1)C2` [benzoylecgonine], the “Partition coefficient Log P” value [1] is given as −0.6 and −0.59.

For `ClC(Cl)Cl` [chloroform], the “reduction of ChE activity due to contact with extraction solvent” value [2] was “more than 60%”.

With `CCOC(C)=O` [ethyl acetate] the “reduction of ChE activity due to contact with extraction solvent” value [2] was “minimal”.

For `CN[C@@H](C)Cc1ccccc1` [methamphetamine], the “Partition coefficient Log P” value [1] is listed as 2.1.

In the case of `N[C@@H](Cc1ccccc1)C(=O)O` [phenylalanine], the “Partition coefficient Log P” value [1] is given as −1.38.
